Here are results for 24 molecules from PubChem BioAssay (NCI).

What all share (assay): NCI-60 cell line screen, 48 h
Test [1] deals with SNB-75 CNS.
Test [2] concerns M14 melanoma.
Test [3] concerns HCT-116 colon.
For test [4], the system named is UO-31 renal.
The test system of test [5] is SF-539 CNS.
In test [6] the test system is MALME-3M melanoma.
In test [7] the test system is UACC-257 melanoma.
Test [8] relates to SW-620 colon.
Test [9] relates to MDA-MB-435.

“And” between values parts separate entries of the source, which are not always exact repeats. Equal values may be shown once.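 Growth conditions: 96-well plates. Treatment: test compound, 48 hours, 5 concentrations. Analysis: linear interpolation between bracketing concentrations; unreached endpoints set to highest concentration. GI50: concentration for 50% inhibition of growth. TGI denotes the concentration required for complete inhibition of growth.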

As for `NC1CCCCC1N.O=C1C=C/C(=C(/c2ccc(O)c(Br)c2)c2ccccc2S(=O)(=O)[O-])C=C1Br.O=C1C=C/C(=C(/c2ccc(O)c(Br)c2)c2ccccc2S(=O)(=O)[O-])C=C1Br.[Pt+4]`, the GI50 is 0.992 µM in [1]; 7.77 µM in test [2]; 0.79 µM in test [3]; 8.03 µM in test [4]; 2.62 µM in test [5]; 0.664 µM in test [6]. The GI50 in test [7] is 5.38 µM; in [8], 0.578 µM. Also, the TGI in test [1] was more than 100 µM; in [2], more than 100 µM; in test [3], more than 100 µM; in test [4] it was more than 100 µM; in test [5], 50.8 µM; in test [6], 21.3 µM. Besides, the TGI in test [7] was more than 100 µM; in [8] it was 52.2 µM.

On to `CSc1ccc2c(cc1=O)[C@@H](NC(=O)c1ccc(Cl)cc1)CCc1cc(O)c(O)c(O)c1-2`, for which the TGI in test [1] is more than 100 µM; in test [2], more than 100 µM; in test [3] it was 32.1 µM; in [4], more than 100 µM; in test [5], more than 100 µM; in [6], more than 100 µM. Also, the TGI in [7] was more than 100 µM; in test [8] it was 37.1 µM.

Regarding `N#CCC(=O)N/N=C1/C(=O)N(c2cc(Cl)ccc2Cl)C(=O)C(=O)C1c1nc2ccccc2s1` (centres undefined), the TGI in test [1], in test [2], in [3], in test [4], in test [5] and in [6] was more than 100 µM each time. Besides, the TGI in test [7] and in test [8] was more than 100 µM each time.

Take `CCOc1cn(C2OC(CO)C(O)C2O)c(=O)[nH]c1=O` (centres undefined): the TGI in test [1], in test [2], in [3], in test [4], in test [6] and in test [7] was more than 100 µM each time. The molecule further yielded a TGI in test [8] of 89.5 µM.

As to `COc1ccc(/C=C2\COc3ccc(O)c(O)c3C2=O)c(OC)c1OC`, the GI50 is 3.09 µM in test [1]; 2.39 µM in [2]; 1.75 µM in [3]; 1.42 µM in test [4]; 2.21 µM in [9]; 2.4 µM in test [5]. For the same molecule, the GI50 in test [6] is 1.77 µM; in test [7] it was 2.88 µM; in test [8] it was 2.77 µM. In addition, the TGI was 86.6 µM in [1]; 8.93 µM in [2]; 3.96 µM in test [3]; 3.02 µM in test [4]; 6.57 µM in [9]; 6.87 µM in test [5]. For the same molecule, the TGI in test [6] was found to be 4.34 µM; in test [7], 18.3 µM; in test [8], 9.53 µM.

As to `CC(=O)OCCOCNC(=S)N/N=C/c1cc([N+](=O)[O-])ccc1O`, the TGI in [1], in test [2], in test [3], in test [4], in test [5] and in test [6] was more than 100 µM in each case. For the same molecule, the TGI in test [7] and in [8] was more than 100 µM in each case.

As for `O=C(OCCCl)C1OC(n2cc(F)c(=O)[nH]c2=O)CC1O` (centres undefined), the TGI in test [1], in test [2], in [3], in test [4], in test [5] and in test [6] was more than 100 µM each time. The TGI in test [7] and in test [8] was more than 100 µM in each case.

For `C[C@@H](NS(=O)(=O)c1ccc(NC(=O)c2ccccc2)cc1)C(=O)O`, the TGI in [1], in test [2], in test [4], in test [5], in test [6] and in test [7] was more than 100 µM in each case. The molecule further yielded a TGI in test [8] of more than 100 µM.

In the case of `CC(C)(C)c1cc(CCCCCCCC2(CCCCCCCc3cc(C(C)(C)C)cc(C(C)(C)C)c3)OC(COCCOCCCCCC#N)C(COCCOCCCCCC#N)O2)cc(C(C)(C)C)c1` (centres undefined), the TGI in test [1], in [2], in [3], in [4], in test [6] and in test [7] was more than 100 µM throughout. The TGI in [8] was more than 100 µM.

For the molecule `CN(C)CCC(CCN(C)C)=NO`, the TGI in test [1], in test [2], in test [3], in [4], in [5] and in test [6] was more than 100 µM throughout. Further, the TGI in test [7] and in test [8] was more than 100 µM in each case.

With `C=CC(=O)NC(N)=NC#N`, the TGI in [1] amounted to 289 µM; in test [2], 292 µM; in test [3], 329 µM; in [4], 333 µM; in test [5] it was 303 µM; in [6], 303 µM. Also, the TGI is 249 µM in test [7] and 314 µM in test [8]. The GI50 in [8] is 160 µM.

Turning to `O=C(c1ccccc1Cl)n1oc2ccccc2c1=O`, the TGI in test [1], in test [2], in [3], in test [4], in test [9] and in [5] was more than 100 µM in each case. Moreover, the TGI in test [6], in [7] and in [8] was more than 100 µM in each case.

On to `Oc1ccc2ccccc2c1N=Nc1cc(Cl)ccc1Cl`, for which the TGI in [1] is 23.9 µM; in [2] it was more than 50 µM; in [3] it was 48.1 µM; in test [4], more than 50 µM; in [9] it was more than 50 µM; in test [6], more than 50 µM. The TGI in test [7] and in test [8] was more than 50 µM in each case.

Turning to `O=C(NCCCl)Nc1cccnc1`, the TGI in test [1] was 63.1 µM; in test [2], more than 100 µM; in [3], 32 µM; in [4] it was 50.3 µM; in test [9], more than 100 µM; in test [5], more than 100 µM. Further, the TGI was 7.4 µM in test [6], 72.2 µM in test [7] and more than 100 µM in test [8].

Turning to `CC(=O)O[C@H]1CCN2C(=O)C=CC(OCc3ccccc3)C12` (some centres undefined), the TGI in test [1], in [2], in [4], in test [5], in test [6] and in test [7] was more than 100 µM in each case. Besides, the TGI in test [8] was more than 100 µM.

With `CCOC(=O)C1=C(C)NC(=O)NC1CN1C(=O)c2ccccc2C1=O` (centres undefined), the GI50 in test [1], in test [2], in [3], in test [4], in [9] and in test [5] was more than 100 µM each time. In addition, the GI50 in test [6], in test [7] and in [8] was more than 100 µM each time. The TGI in [1], in test [2], in test [3], in [4], in test [9] and in test [5] was more than 100 µM each time. The TGI in test [6], in test [7] and in test [8] was more than 100 µM throughout.

Regarding `COc1cc([N+](=O)[O-])c(OC)cc1-c1nc2sc(C)cn2c1/C(N)=N/C(=N)N`, the GI50 in test [1] was more than 100 µM; in test [2] it was more than 100 µM; in test [3] it was more than 100 µM; in [4], 38.3 µM; in test [9] it was 16.1 µM; in test [5] it was 27.3 µM. Besides, the GI50 in test [6] is 13 µM; in [7], 18.4 µM; in [8], 5.78 µM. Further, the TGI in test [1], in test [2], in test [3], in test [4], in test [9] and in test [5] was more than 100 µM in each case. Also, the figures for the TGI in [6], in test [7] and in test [8] were 45.2 µM, 67 µM and more than 100 µM, respectively.

Take `COCCOC1=CC(=O)c2c(O)ccc(O)c2C1=O`: the GI50 in [1] was 1.69 µM; in test [2], 0.818 µM; in [3] it was 1.29 µM; in test [4] it was 1.63 µM; in [6], 0.808 µM; in [7], 0.626 µM. In test [8], the GI50 was 1.32 µM. For the same molecule, the TGI is 3.43 µM and 3.09 µM in test [1]; 0.353 µM and 2.16 µM in test [2]; 1 µM and 2.64 µM in [3]; 3.83 µM and 3.35 µM in test [4]; 0.324 µM and 0.323 µM in test [9]; 3.12 µM and 3.16 µM in test [5]. Besides, the TGI in [6] was 0.328 µM and 2.07 µM; in [7], 0.409 µM and 2.06 µM; in [8] it was 6.55 µM and 3.18 µM.

Consider `COc1cc(CC2c3cc(OC)c(OC)cc3CCN2C)ccc1O` (centres undefined), for which the TGI in [1], in test [2], in test [3], in test [4], in test [5] and in [6] was more than 100 µM each time. In addition, the TGI in [7] and in test [8] was more than 100 µM throughout.

Consider `Cc1[nH]c2ccccc2c1CC/C(=N\Nc1ccccc1)c1ccccc1`, for which the TGI in test [1], in test [2], in test [3], in test [4], in test [5] and in test [6] was more than 100 µM throughout. The TGI in test [7] and in test [8] was more than 100 µM throughout.

As to `N#Cc1c(NC(=O)c2ccc(F)cc2)sc2c1CCCC2`, the GI50 in test [1], in test [2], in test [3], in test [4], in test [9] and in test [5] was more than 25 µM in each case. For the same molecule, the GI50 in [6], in test [7] and in test [8] was more than 25 µM each time. The TGI in test [1], in test [2], in test [3], in [4], in [9] and in [5] was more than 25 µM in each case. Further, the TGI in test [6], in test [7] and in test [8] was more than 25 µM in each case.

Consider `COc1ccc(C(=NN=C(N)N)c2ccc(OC)cc2)cc1`, for which the GI50 in test [1] is 1.84 µM; in test [2], 2.35 µM; in test [3], 3.15 µM; in test [4], 3.46 µM; in [9] it was 1.78 µM; in test [6], 2.85 µM. Besides, the GI50 in test [7] was 7.24 µM; in [8] it was 3.11 µM. Also, the TGI stood at 11.3 µM in [1]; 6.36 µM in test [2]; 12.4 µM in [3]; 15.6 µM in test [4]; 4.33 µM in test [9]; 11.6 µM in [6]. In addition, the TGI in test [7] is 25.1 µM; in test [8], 12.4 µM.

As to `O=C1C(=C([O-])c2ccccc2)C(=O)c2ccccc21.O=C1C(=C([O-])c2ccccc2)C(=O)c2ccccc21.[Mn+2]`, the GI50 is more than 100 µM in test [1]; 70.4 µM in test [2]; 43.9 µM in test [4]; more than 100 µM in test [5]; more than 100 µM in [6]; 22.6 µM in [7]. In test [8], the GI50 is more than 100 µM. Moreover, the TGI was more than 100 µM in [1]; more than 100 µM in [2]; more than 100 µM in [4]; more than 100 µM in test [5]; more than 100 µM in [6]; 48.4 µM in test [7]. Also, the TGI in [8] is more than 100 µM.

Consider `COc1cc(/C=C/c2cc(/C=C/c3ccc(O)c(OC)c3)n(C(=O)Nc3ccccc3Cl)n2)ccc1O`, for which the GI50 in test [1] was 0.259 µM; in test [2], 0.283 µM; in test [4], 0.159 µM; in test [9], 0.0738 µM; in test [5] it was 0.352 µM; in test [6], 0.539 µM. The figures for the GI50 in test [7] and in test [8] were 1.02 µM and 0.389 µM, respectively. Moreover, the TGI in test [1] was determined as 0.959 µM; in [2] it was 1.19 µM; in test [4], 1.17 µM; in test [9], 0.236 µM; in [5] it was 1.58 µM; in test [6] it was 2.01 µM. For the same molecule, the results for the TGI in test [7] and in test [8] were 3.71 µM and 1.69 µM, respectively.
